From ChEMBL document CHEMBL1201862, “PubChem BioAssay data set” (2004)
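Results reflect a 48-hour exposure of cells in 96-well plates to compound at five concentrations. Here, GI50 denotes the concentration required for 50% inhibition of growth.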 Activity calls are given as the source filed them. Rule as the data show it: active = GI50 up to about 1.1 µM and inactive = higher.

Assays:
Experiment in all cases: DTP human tumour cell line panel, 48 h
A549 = tested on: A549
CAKI-1 = tested on: CAKI-1
CCRF-CEM = tested on: CCRF-CEM
COLO 205 = tested on: COLO 205
HCC 2998 = tested on: HCC 2998
HCT-116 = tested on: HCT-116
HOP-92 = tested on: HOP-92
M14 = tested on: M14
NCI-H460 = tested on: NCI-H460
OVCAR-3 = tested on: OVCAR-3
OVCAR-5 = tested on: OVCAR-5
SK-MEL-28 = tested on: SK-MEL-28
SK-MEL-2 = tested on: SK-MEL-2
SK-MEL-5 = tested on: SK-MEL-5
SR = tested on: SR
SW-620 = tested on: SW-620
A498 = tested on: A498
MDA-MB-231 = tested on: MDA-MB-231
PC-3 = tested on: PC-3
DU-145 = tested on: DU-145

SMILES	GI50 (A549)	GI50 (CAKI-1)	GI50 (CCRF-CEM)	GI50 (COLO 205)	GI50 (HCC 2998)	GI50 (HCT-116)	GI50 (HOP-92)	GI50 (M14)	GI50 (NCI-H460)	GI50 (OVCAR-3)	GI50 (OVCAR-5)	GI50 (SK-MEL-28)	GI50 (SK-MEL-2)	GI50 (SK-MEL-5)	GI50 (SR)	GI50 (SW-620)	GI50 (A498)	GI50 (MDA-MB-231)	GI50 (PC-3)	GI50 (DU-145)
O=S(=O)(/C=C/c1ccc(F)cc1)Cc1ccc(CS(=O)(=O)/C=C/c2ccc(F)cc2)cc1	> 100 µM (inactive)	> 100 µM (inactive)	> 100 µM (inactive)	> 100 µM (inactive)	> 100 µM (inactive)	> 100 µM (inactive)	> 100 µM (inactive)	> 100 µM (inactive)	> 100 µM (inactive)	> 100 µM (inactive)	> 100 µM (inactive)	> 100 µM (inactive)	> 100 µM (inactive)	> 100 µM (inactive)	> 100 µM (inactive)	> 100 µM (inactive)				
COc1ccccc1NC(=O)C1=C(C)NC(C)=C(C(=O)Nc2ccccc2OC)C1c1ccccc1OC	> 100 µM (inactive)	> 100 µM (inactive)	> 100 µM (inactive)	36.9 µM (inactive)	> 100 µM (inactive)	38.9 µM (inactive)	> 100 µM (inactive)	> 100 µM (inactive)	97.3 µM (inactive)	80.4 µM (inactive)	> 100 µM (inactive)	> 100 µM (inactive)	> 100 µM (inactive)	> 100 µM (inactive)	83.2 µM (inactive)	> 100 µM (inactive)	> 100 µM (inactive)			
O=C(CC(=O)N1N=C(c2ccccc2)C(/N=N/c2ccc(Cl)cc2)C1=O)Nc1ccccc1Cl (configuration not stated)	13.2 µM (inactive)	19.5 µM (inactive)		> 100 µM (inactive)	68.7 µM (inactive)	23.6 µM (inactive)		28.1 µM (inactive)	42.1 µM (inactive)	24.3 µM (inactive)	> 100 µM (inactive)	20.6 µM (inactive)	32.4 µM (inactive)	18.1 µM (inactive)	24.7 µM (inactive)	40.7 µM (inactive)	> 10 µM (inactive)			
COc1cc2c3c(c1OC)C1(C=CC(=O)C=C1)CC3N(C(=O)OC(C)(C)C(Cl)(Cl)Cl)CC2 (configuration not stated)	10.5 µM (inactive)	14.9 µM (inactive)	7.73 µM (inactive)	12.4 µM (inactive)		6.25 µM (inactive)	14.4 µM (inactive)	14.5 µM (inactive)	14.5 µM (inactive)	7.66 µM (inactive)	2.52 µM (inactive)		11 µM (inactive)	6.87 µM (inactive)	3.5 µM (inactive)	18.3 µM (inactive)	16.7 µM (inactive)			
CC(=O)C(CN(Cc1ccccc1)Cc1ccccc1)C(c1ccccc1)c1c(O)c2ccccc2oc1=O (configuration not stated)	> 100 µM (inactive)	> 100 µM (inactive)	> 100 µM (inactive)			> 100 µM (inactive)	18.9 µM (inactive)	> 100 µM (inactive)	> 100 µM (inactive)	> 100 µM (inactive)	> 100 µM (inactive)		> 100 µM (inactive)	> 100 µM (inactive)	> 100 µM (inactive)	71.4 µM (inactive)	> 100 µM (inactive)			
Cc1cc(C)[n+](CCOc2ccc(/C(=C(/Cl)c3ccccc3)c3ccccc3)cc2)c(C)c1.[O-][Cl+3]([O-])([O-])[O-]	1.55 µM (inactive)	4.49 µM (inactive)	0.521 µM (active)	0.292 µM (active)	0.701 µM (active)	0.743 µM (active)	0.989 µM (active)	2 µM (inactive)	1.25 µM (inactive)	0.659 µM (active)	2.69 µM (inactive)	1.32 µM (inactive)	0.865 µM (active)	0.455 µM (active)	0.804 µM (active)	0.891 µM (active)	3.87 µM (inactive)			
COc1ccc(-c2cc(-c3ccncc3)nc(N)c2-c2ccc(F)cc2)cc1	> 100 µM (inactive)	32.3 µM (inactive)	> 100 µM (inactive)	5.43 µM (inactive)		11.9 µM (inactive)	83.4 µM (inactive)	42 µM (inactive)	15.5 µM (inactive)	27.9 µM (inactive)	> 100 µM (inactive)		36 µM (inactive)	35.1 µM (inactive)	4.19 µM (inactive)	9.18 µM (inactive)	46.3 µM (inactive)	> 100 µM (inactive)	67.1 µM (inactive)	
CCC1CCc2c(c(=O)oc3c2cc(OC)c2cccc(OC)c23)C1 (configuration not stated)	71 µM (inactive)	> 100 µM (inactive)	28.3 µM (inactive)	> 100 µM (inactive)	77.1 µM (inactive)	33.4 µM (inactive)		> 100 µM (inactive)	51.1 µM (inactive)		> 100 µM (inactive)	> 100 µM (inactive)	> 100 µM (inactive)	34.8 µM (inactive)	38.1 µM (inactive)		> 100 µM (inactive)			
COc1ccc2nc3cc(Cl)ccc3c(Sc3ccc(NC(C)=O)cc3)c2c1	> 53.2 µM (inactive)	> 27 µM (inactive)	9.18 µM (inactive)	14.8 µM (inactive)	2.74 µM (inactive)	17.9 µM (inactive)		11.6 µM (inactive)	> 26.3 µM (inactive)		> 29 µM (inactive)	12.8 µM (inactive)	12.3 µM (inactive)	> 29.3 µM (inactive)	3.66 µM (inactive)	14.2 µM (inactive)	> 41.7 µM (inactive)			
CCCCCCCCC/C=C1\CCC(CN(C)C)C1=O (configuration not stated)	4.39 µM (inactive)	2.25 µM (inactive)	0.721 µM (active)	2.29 µM (inactive)	3.5 µM (inactive)	1.8 µM (inactive)	2.13 µM (inactive)	1.84 µM (inactive)	3.43 µM (inactive)		14.8 µM (inactive)	2.03 µM (inactive)	2.72 µM (inactive)	2.05 µM (inactive)	2.43 µM (inactive)	1.58 µM (inactive)	2.48 µM (inactive)			
O=C(O)C(CS)NCc1c2ccccc2nc2ccccc12 (configuration not stated)	91.6 µM (inactive)	34.4 µM (inactive)	19 µM (inactive)	> 100 µM (inactive)	40.6 µM (inactive)	16.7 µM (inactive)	25.9 µM (inactive)		42.5 µM (inactive)	38.9 µM (inactive)	> 100 µM (inactive)	72.6 µM (inactive)	68.2 µM (inactive)		19.5 µM (inactive)	37.4 µM (inactive)				
COc1cc2c(oc(=O)c3cc4ccoc4c(OC)c32)c2cccc(O)c12	> 100 µM (inactive)	> 100 µM (inactive)	> 100 µM (inactive)	> 100 µM (inactive)	> 100 µM (inactive)	> 100 µM (inactive)	> 100 µM (inactive)	> 100 µM (inactive)	> 100 µM (inactive)	> 100 µM (inactive)	> 100 µM (inactive)	> 100 µM (inactive)	> 100 µM (inactive)	> 100 µM (inactive)	> 100 µM (inactive)	> 100 µM (inactive)	> 100 µM (inactive)			
COC(=O)C(C(=O)C(N)=O)c1csc(-n2nc(-c3ccccc3)cc2-c2ccccc2)n1 (configuration not stated)	> 31.6 µM (inactive)	10.6 µM (inactive)	25.1 µM (inactive)	26.8 µM (inactive)	> 31.6 µM (inactive)	> 31.6 µM (inactive)	> 67 µM (inactive)	> 31.6 µM (inactive)	> 31.6 µM (inactive)	43.2 µM (inactive)	> 100 µM (inactive)	> 31.6 µM (inactive)	> 31.6 µM (inactive)	28.7 µM (inactive)	> 10 µM (inactive)	4.4 µM (inactive)	> 31.6 µM (inactive)			
CCOC(=O)Cc1ccc(Nc2nc3cc(C(F)(F)F)ccc3nc2C(=O)OCC)cc1	> 100 µM (inactive)	30.1 µM (inactive)		> 100 µM (inactive)		81.8 µM (inactive)	38.8 µM (inactive)	> 100 µM (inactive)	> 100 µM (inactive)	> 100 µM (inactive)	> 100 µM (inactive)	> 100 µM (inactive)	61.1 µM (inactive)	> 100 µM (inactive)	> 100 µM (inactive)	> 100 µM (inactive)	32.7 µM (inactive)		> 100 µM (inactive)	> 100 µM (inactive)
CCOC(=O)c1[nH]cc(C)c1-c1ccn(-c2ccccc2)c1	59.6 µM (inactive)	> 100 µM (inactive)	19.2 µM (inactive)	51.9 µM (inactive)	41.9 µM (inactive)	42.7 µM (inactive)	21.5 µM (inactive)	48.2 µM (inactive)	38.6 µM (inactive)	19.6 µM (inactive)	> 100 µM (inactive)	96.2 µM (inactive)	61.5 µM (inactive)	21.7 µM (inactive)	15.6 µM (inactive)	80.4 µM (inactive)	> 100 µM (inactive)		30.6 µM (inactive)	> 100 µM (inactive)
O=C1c2ccccc2C(=O)c2[nH]c(Cc3ccccc3F)nc21	52.7 µM (inactive)	86.7 µM (inactive)	> 100 µM (inactive)	33.7 µM (inactive)	> 100 µM (inactive)	41.4 µM (inactive)	68.1 µM (inactive)	84.1 µM (inactive)	33.9 µM (inactive)	14.5 µM (inactive)		> 100 µM (inactive)	60.1 µM (inactive)		68.2 µM (inactive)	37.9 µM (inactive)				
Cc1oc(N)c(S(=O)(=O)c2ccc(Cl)cc2)c1C	34.4 µM (inactive)		78.9 µM (inactive)	> 10 µM (inactive)	23.8 µM (inactive)	39.4 µM (inactive)	> 100 µM (inactive)	29.6 µM (inactive)	22.2 µM (inactive)	29.1 µM (inactive)	> 100 µM (inactive)	> 100 µM (inactive)	28 µM (inactive)	44.7 µM (inactive)	86.3 µM (inactive)	> 100 µM (inactive)	> 100 µM (inactive)		23.7 µM (inactive)	> 100 µM (inactive)
